# Measurements reported in patent US11492325B2, “Compounds as inhibitors of sodium channels” (Human BioMolecular Research Institute, priority 2016, dated 2022).
# Where two headings read alike, the source gives them in different places.
# Tests used:
# [1] = Metabolic stability in human liver microsomes; format: in vitro ADME
# In short: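 Liver microsomes (rat, mouse, dog or human; 0.4-0.5 mg protein) incubated with 50 μM compound in 100 mM potassium phosphate pH 7.4 with NADPH-generating system and 3 mM MgCl2. Parent loss followed by HPLC-UV; half-life and kapp from normalized peak area versus time.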
# [2] = Metabolism in human hepatic S9
# [3] = tested on: Male BALBc mice; conditions: mice, 100 mg/kg
# Excerpt: Male BALBc mice (20-22 g) were used throughout these studies. The animals were maintained in a temperature-controlled room with 12-hr periods of light and darkness and had continuous access to water and animal food. […] Groups contained 2-4 animals.
# [4] = tested on: isolated perfused aged rat heart exposed to hydrogen peroxide; assay: Aged rat heart perfusion model of arrhythmia (H2O2, ex vivo); conditions: 10 μM, 30 min after perfusion, continuous H2O2 (0.1 mM)
# Procedure: FIG. 1. Initiation of Early After Depolarizations-Mediated Ectopic Ventricular Beats and Ventricular Fibrillation in an Isolated Perfused Aged Rat Heart Exposed to hydrogen peroxide.
# Conduction velocity (CV), action potential duration (APD) and responsiveness to drugs was measured in ex-vivo rat heart preparations (FIG. 1). We chose a rat heart model to test for the effect of (R)-82 (i.e., (R)-Dd, Example 4) to decrease arrhythmias because CV and APD are preserved in buffer-perfused rat hearts up to […]. In contrast, in this model, continuous presence (perfusion) of H2O2 (0.1 mM) produces early after depolarizations (EADs) and ectopic ventricular beats 6 min after exposure that degenerates to ventricular tachycardia (VT) and ventricular fibrillation (VF) after 12 min (FIG. 1). Left untreated, the heart would die within 45 mins. […] The conclusion is that (R)-82 is more efficacious than the currently used standard of care.
# [5] = target: CYP3A5 (Homo sapiens, UniProt P20815); assay: Metabolism with highly purified CYP3A5 (HPLC)
# CYP3A5, sequence (P20815 whole entry): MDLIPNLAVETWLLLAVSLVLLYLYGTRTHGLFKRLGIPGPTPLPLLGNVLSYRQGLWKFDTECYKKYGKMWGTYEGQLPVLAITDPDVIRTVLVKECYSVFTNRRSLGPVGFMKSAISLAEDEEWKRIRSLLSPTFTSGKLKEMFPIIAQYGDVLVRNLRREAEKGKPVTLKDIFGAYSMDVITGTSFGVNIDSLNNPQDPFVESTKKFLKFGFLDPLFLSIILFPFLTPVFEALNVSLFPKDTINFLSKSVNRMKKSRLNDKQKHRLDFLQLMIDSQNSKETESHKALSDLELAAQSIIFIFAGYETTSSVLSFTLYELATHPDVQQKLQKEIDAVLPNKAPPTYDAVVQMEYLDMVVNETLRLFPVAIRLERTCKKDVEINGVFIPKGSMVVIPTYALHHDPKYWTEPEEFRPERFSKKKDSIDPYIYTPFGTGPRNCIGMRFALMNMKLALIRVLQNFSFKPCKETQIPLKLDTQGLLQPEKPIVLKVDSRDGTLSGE
# Procedure: (§1) A typical incubation contained rat, mouse, dog or human liver microsomes (0.4-0.5 mg of protein), 100 mM potassium phosphate buffer (pH7.4), 50 μM test compound, an NADPH-generating system consisting of 0.5 mM NADP^+, 0.5 mM glucose-6-phosphate, 1 IU/mL glucose-6-phosphate dehydrogenase, 1 mg/mL diethylenetriaminepentaaceticacid (DETAPAC), and 3 mM MgCl2 in a final incubation volume of 0.25 mL. […] After centrifugation at 3000 rpm for 5 min, the organic fraction was collected, the solvent was removed with a stream of argon and the residue was reconstituted in 125 μL of MeOH and 125 μL H2O, mixed thoroughly, centrifuged at 13,000 rpm for 5 min and analyzed by high performance liquid chromatography. Samples were run on a Hitachi D-7000 HPLC system using a L-7100 analytical pump, L-7400 UV-Visible variable wavelength detector, and L-7600 automatic sample injector. […] Disappearance of the analyte was monitored over time. A plot of the area under the curve for the normalized analyte versus time afforded the half-life values and kapp.
# (§2) Accordingly, we examined the metabolism of leads with highly purified CYPs with an HPLC method (Example 8).
# [6] = target: CYP2D6 (Homo sapiens, UniProt P10635); assay: Metabolism with highly purified CYP2D6 (HPLC)
# CYP2D6, sequence (P10635 whole entry): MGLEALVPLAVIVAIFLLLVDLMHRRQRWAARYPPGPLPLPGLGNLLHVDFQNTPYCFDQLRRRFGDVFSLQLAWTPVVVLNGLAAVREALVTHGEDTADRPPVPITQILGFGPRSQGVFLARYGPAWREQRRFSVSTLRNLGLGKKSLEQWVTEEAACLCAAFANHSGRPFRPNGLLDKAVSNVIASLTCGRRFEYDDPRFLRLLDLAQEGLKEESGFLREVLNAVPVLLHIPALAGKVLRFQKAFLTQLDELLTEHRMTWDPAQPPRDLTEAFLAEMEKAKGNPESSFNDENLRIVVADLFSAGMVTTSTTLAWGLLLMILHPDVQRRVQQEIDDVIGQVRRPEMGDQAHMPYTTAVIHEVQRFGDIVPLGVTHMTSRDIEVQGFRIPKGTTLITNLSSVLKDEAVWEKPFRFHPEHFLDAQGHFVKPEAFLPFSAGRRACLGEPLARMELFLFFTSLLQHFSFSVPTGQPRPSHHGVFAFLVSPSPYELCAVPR
# Procedure: as §1, §2
# [7] = target: T1, CYP3A4 (Homo sapiens, UniProt P08684); conditions: 50 min
# T1 sequence (P08684 whole entry): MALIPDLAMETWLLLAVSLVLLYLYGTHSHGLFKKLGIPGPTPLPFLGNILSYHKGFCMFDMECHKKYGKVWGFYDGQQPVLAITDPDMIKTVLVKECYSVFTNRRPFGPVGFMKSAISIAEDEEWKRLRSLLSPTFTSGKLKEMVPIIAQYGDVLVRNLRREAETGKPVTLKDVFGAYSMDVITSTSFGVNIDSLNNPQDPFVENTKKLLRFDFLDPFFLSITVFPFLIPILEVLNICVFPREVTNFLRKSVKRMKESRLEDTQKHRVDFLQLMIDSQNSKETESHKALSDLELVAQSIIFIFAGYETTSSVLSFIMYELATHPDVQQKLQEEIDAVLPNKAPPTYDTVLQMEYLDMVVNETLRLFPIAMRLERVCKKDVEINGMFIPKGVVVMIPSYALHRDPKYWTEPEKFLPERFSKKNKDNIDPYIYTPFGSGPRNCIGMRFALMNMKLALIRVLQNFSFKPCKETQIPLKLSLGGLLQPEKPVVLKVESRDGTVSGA
# [8] = Metabolism in mouse hepatic S9; conditions: 0.4 mg protein/incubation; 30 mins, 37° C.; nmol metabolism/incubation
# Procedure: as §1
# Microsomes contain CYPs and FMO metabolic enzymes. S9 contains soluble enzymes (i.e., aldehyde oxidase, MAO, etc.).
# [9] = tested on: FMO; assay: Metabolism by FMO
# [10] = target: T1, CYP3A4; assay: Metabolism with highly purified CYP3A4 (HPLC)
# [11] = target: T2, Human FMO1 (Homo sapiens, UniProt Q01740); assay: Metabolism with human FMO1 (nmol metabolism/incubation); conditions: 15 μg enzyme/incubation; 30 mins, 37° C.; nmol metabolism/incubation
# T2 sequence (Q01740 1-532): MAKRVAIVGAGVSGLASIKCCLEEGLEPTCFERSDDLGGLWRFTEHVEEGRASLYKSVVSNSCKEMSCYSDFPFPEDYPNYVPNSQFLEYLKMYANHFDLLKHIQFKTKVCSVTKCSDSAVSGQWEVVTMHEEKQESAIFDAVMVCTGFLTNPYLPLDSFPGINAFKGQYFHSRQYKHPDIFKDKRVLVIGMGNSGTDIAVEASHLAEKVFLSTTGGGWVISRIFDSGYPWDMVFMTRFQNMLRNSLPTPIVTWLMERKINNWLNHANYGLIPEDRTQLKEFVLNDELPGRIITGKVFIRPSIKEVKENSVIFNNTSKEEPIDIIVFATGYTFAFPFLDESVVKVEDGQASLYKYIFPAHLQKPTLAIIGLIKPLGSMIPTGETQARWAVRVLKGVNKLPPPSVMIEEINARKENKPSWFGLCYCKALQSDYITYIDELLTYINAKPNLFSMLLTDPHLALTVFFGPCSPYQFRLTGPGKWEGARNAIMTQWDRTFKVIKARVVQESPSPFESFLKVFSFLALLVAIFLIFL
smiles,measurement,setting,value
Cl.NC(COc1ccccc1C(F)(F)F)c1ccccc1 (stereo in doubt) [(R)-82],Liver Microsomes T1/2,"[1]; human, microsomes",136 min
same,"Liver S-9, remaining after 1 hr","[2]; human, s9, 1 h",>95% after 1 hr
same,Behavior Effect (R)-enantiomer,[3],No detectable effect
same,behavioral effects at 100 mg/kg,[3]; enantiomers,no apparent behavioral effects
same,resolution of arrhythmias,[4],complete resolution of all forms of arrhythmias to normal sinus rhythm
"Cl.NC(COc1ccccc1C(F)(F)F)c1ccccc1 (racemic) [Compound 82, 1-phenyl-2-(2-(trifluoromethyl)phenoxy)ethan-1-amine]","nmols metabolized, CYP3A5","[5]; human, 50 min",29.9 nmols
same,"nmols/μg CYP, CYP3A5","[5]; human, 50 min",2.13 nmols/μg CYP
same,"pmols product/μg CYP/min, CYP3A5","[5]; human, 50 min",42.6 pmols product/μg CYP/min
same,"nmols metabolized, CYP2D6","[6]; human, 50 min",29.1 nmols
same,"nmols/μg CYP, CYP2D6","[6]; human, 50 min",2.18 nmols/μg CYP
same,"pmols product/μg CYP/min, CYP2D6","[6]; human, 50 min",43.6 pmols product/μg CYP/min
same,"nmols metabolized, CYP3A4",[7],10.9 nmols
same,"nmols/μg CYP, CYP3A4",[7],0.77 nmols/μg CYP
same,"pmols product/μg CYP/min, CYP3A4",[7],15.4 pmols product/μg CYP/min
"Cc1cccc(C)c1OCC(C)N (racemic) [Mexiletine, reference compound]",metabolism in human liver microsomes judged by HPLC,[1],not metabolized very extensively
same,metabolism in human liver S-9 judged by HPLC,[2],not metabolized very extensively
same,Mouse liver S-9 (nmol/incub),[8],5.2 nmol/incub
same,"nmols metabolized, CYP3A5",[5]; 50 min incubation,34.2 nmols
same,"pmols product/μg CYP/min, CYP3A5",[5]; 50 min incubation,48.8 pmols product/μg CYP/min
same,"nmols metabolized, CYP2D6",[6]; 50 min incubation,4.04 nmols
same,"pmols product/μg CYP/min, CYP2D6",[6]; 50 min incubation,6.0 pmols product/μg CYP/min
same,metabolism by FMO,[9],metabolized by FMO
same,Human CYP3A4 (nmol/incub),"[10]; 3 pmol enzyme/incubation, 30 mins, 37° C., nmol metabolism/incubation",3.0 nmol/incub
same,"nmols metabolized, CYP3A4",[10]; 50 min incubation,32.4 nmols
same,"pmols product/μg CYP/min, CYP3A4",[10]; 50 min incubation,46.2 pmols product/μg CYP/min
same,Human FMO1 (nmol/incub),[11],6.7 nmol/incub
